# From patent publication US10787452B2 (Vertex Pharmaceuticals Incorporated, priority 2012, dated 2020)
# Tested on: HCT116 colorectal cancer cells
# Test: Cisplatin sensitization assay (96 h cell viability MTS);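 note: compound concentration needed to lower the Cisplatin-alone IC50 by a set fold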
# Assay type: cell-based
# Settings: 96 h MTS, compound plus Cisplatin
# Method: Compounds can be screened for their ability to sensitize HCT116 colorectal cancer cells to Cisplatin using a 96 h cell viability (MTS) assay. […] Compounds and Cisplatin are then both added simultaneously to the cell media in 2-fold serial dilutions from a top final concentration of 10 μM as a full matrix of concentrations in a final cell volume of 200 μl, and the cells are then incubated at 37° C. in 5% CO2. After 96 h, 40 μl of MTS reagent (Promega G358a) is added to each well and the cells are incubated for 1 h at 37° C. in 5% CO2.
row,Compound,Cisplatin Sensitization Assay
1,"Nc1nn2cc(F)cnc2c1C(=O)Nc1cnccc1C1CCN(C(=O)C23CCN(CC2)CC3)CC1 [I-C-18, 2-amino-6-fluoro-N-(4-(1-(quinuclidine-4-carbonyl)piperidin-4-yl)pyridin-3-yl)pyrazolo[1,5-a]pyrimidine-3-carboxamide]",+ (Compounds with a Cisplatin sensitization value >0.2 μM but <5 μM are marked with “+.”)
2,"CN1CCN(C(=O)c2ccc(-c3ccncc3NC(=O)c3c(N)nn4cc(F)cnc34)cn2)CC1 [I-C-19, 2-amino-6-fluoro-N-(6-(4-methylpiperazine-1-carbonyl)-[3,4′-bipyridin]-3′-yl)pyrazolo[1,5-a]pyrimidine-3-carboxamide]",++ (Compounds with a Cisplatin sensitization value >0.02 μM but <0.2 μM are marked with “++.”)
3,"Cc1ncccc1-c1ccncc1NC(=O)c1c(N)nn2cc(F)cnc12 [I-C-20, 2-amino-6-fluoro-N-(2-methyl-[3,4′-bipyridin]-3′-yl)pyrazolo[1,5-a]pyrimidine-3-carboxamide]",+++ (Compounds with a Cisplatin sensitization value of <0.02 μM are marked with “+++.”)
4,"CN1CCN(c2ccc(-c3ccncc3NC(=O)c3c(N)nn4cc(F)cnc34)cn2)CC1 [I-C-21, 2-amino-6-fluoro-N-(6-(4-methylpiperazin-1-yl)-[3,4′-bipyridin]-3′-yl)pyrazolo[1,5-a]pyrimidine-3-carboxamide]",+++ (Compounds with a Cisplatin sensitization value of <0.02 μM are marked with “+++.”)
5,"Cc1ccc(-c2ccncc2NC(=O)c2c(N)nn3cc(F)cnc23)cn1 [I-C-22, 2-amino-6-fluoro-N-(6-methyl-[3,4′-bipyridin]-3′-yl)pyrazolo[1,5-a]pyrimidine-3-carboxamide]",++ (Compounds with a Cisplatin sensitization value >0.02 μM but <0.2 μM are marked with “++.”)
6,"CN1CCC(c2ccncc2NC(=O)c2c(N)nn3cc(C(C)(C)C#N)cnc23)CC1 [I-C-23, 2-amino-6-(2-cyanopropan-2-yl)-N-(4-(1-methylpiperidin-4-yl)pyridin-3-yl)pyrazolo[1,5-a]pyrimidine-3-carboxamide]",+ (Compounds with a Cisplatin sensitization value >0.2 μM but <5 μM are marked with “+.”)
7,"Nc1nn2cc(F)cnc2c1C(=O)Nc1cnccc1-c1ccncc1 [I-C-24, N-([4,4′-bipyridin]-3-yl)-2-amino-6-fluoropyrazolo[1,5-a]pyrimidine-3-carboxamide]",+++ (Compounds with a Cisplatin sensitization value of <0.02 μM are marked with “+++.”)
8,"CN1CCN(C(=O)c2ccc(-c3ccncc3NC(=O)c3c(N)nn4cc(F)cnc34)cc2)CC1 [I-C-25, 2-amino-6-fluoro-N-(4-(4-(4-methylpiperazine-1-carbonyl)phenyl)pyridin-3-yl)pyrazolo[1,5-a]pyrimidine-3-carboxamide]",+++ (Compounds with a Cisplatin sensitization value of <0.02 μM are marked with “+++.”)
9,"Nc1nn2cc(F)cnc2c1C(=O)Nc1cnccc1-c1ccnnc1 [I-C-26, 2-amino-6-fluoro-N-(4-(pyridazin-4-yl)pyridin-3-yl)pyrazolo[1,5-a]pyrimidine-3-carboxamide]",++ (Compounds with a Cisplatin sensitization value >0.02 μM but <0.2 μM are marked with “++.”)
10,"COc1ccc(-c2ccncc2NC(=O)c2c(N)nn3cc(F)cnc23)cn1 [I-C-27, 2-amino-6-fluoro-N-(6-methoxy-[3,4′-bipyridin]-3′-yl)pyrazolo[1,5-a]pyrimidine-3-carboxamide]",++ (Compounds with a Cisplatin sensitization value >0.02 μM but <0.2 μM are marked with “++.”)
11,"Cc1cnccc1-c1ccncc1NC(=O)c1c(N)nn2cc(F)cnc12 [I-C-29, 2-amino-6-fluoro-N-(3′-methyl-[4,4′-bipyridin]-3-yl)pyrazolo[1,5-a]pyrimidine-3-carboxamide]",+++ (Compounds with a Cisplatin sensitization value of <0.02 μM are marked with “+++.”)
12,"Cc1ccncc1-c1ccncc1NC(=O)c1c(N)nn2cc(F)cnc12 [I-C-30, 2-amino-6-fluoro-N-(4-methyl-[3,4′-bipyridin]-3′-yl)pyrazolo[1,5-a]pyrimidine-3-carboxamide]",+++ (Compounds with a Cisplatin sensitization value of <0.02 μM are marked with “+++.”)
13,"Cc1nnccc1-c1ccncc1NC(=O)c1c(N)nn2cc(F)cnc12 [I-C-31, 2-amino-6-fluoro-N-(4-(3-methylpyridazin-4-yl)pyridin-3-yl)pyrazolo[1,5-a]pyrimidine-3-carboxamide]",+++ (Compounds with a Cisplatin sensitization value of <0.02 μM are marked with “+++.”)
14,"Cc1ccnnc1-c1ccncc1NC(=O)c1c(N)nn2cc(F)cnc12 [I-C-33, 2-amino-6-fluoro-N-(4-(4-methylpyridazin-3-yl)pyridin-3-yl)pyrazolo[1,5-a]pyrimidine-3-carboxamide]",+ (Compounds with a Cisplatin sensitization value >0.2 μM but <5 μM are marked with “+.”)
15,"Cc1nc(F)ccc1-c1ccncc1NC(=O)c1c(N)nn2cc(F)cnc12 [I-C-34, 2-amino-6-fluoro-N-(6-fluoro-2-methyl-[3,4′-bipyridin]-3′-yl)pyrazolo[1,5-a]pyrimidine-3-carboxamide]",+++ (Compounds with a Cisplatin sensitization value of <0.02 μM are marked with “+++.”)
16,"Nc1nn2cc(F)cnc2c1C(=O)Nc1cnccc1-c1cccnc1F [I-C-35, 2-amino-6-fluoro-N-(2-fluoro-[3,4′-bipyridin]-3′-yl)pyrazolo[1,5-a]pyrimidine-3-carboxamide]",+++ (Compounds with a Cisplatin sensitization value of <0.02 μM are marked with “+++.”)
17,"Cc1cccnc1-c1ccncc1NC(=O)c1c(N)nn2cc(F)cnc12 [I-C-36, 2-amino-6-fluoro-N-(3-methyl-[2,4′-bipyridin]-3′-yl)pyrazolo[1,5-a]pyrimidine-3-carboxamide]",+++ (Compounds with a Cisplatin sensitization value of <0.02 μM are marked with “+++.”)
18,"Nc1nn2cc(F)cnc2c1C(=O)Nc1cnccc1-c1cccnc1Cl [I-C-37, 2-amino-N-(2-chloro-[3,4′-bipyridin]-3′-yl)-6-fluoropyrazolo[1,5-a]pyrimidine-3-carboxamide]",+++ (Compounds with a Cisplatin sensitization value of <0.02 μM are marked with “+++.”)
19,"CN1CCC(C(=O)N2CC=C(c3c(F)cncc3NC(=O)c3c(N)nn4cc(F)cnc34)CC2)CC1 [I-C-38, 2-amino-6-fluoro-N-(5-fluoro-1′-(1-methylpiperidine-4-carbonyl)-1′,2′,3′,6′-tetrahydro-[4,4′-bipyridin]-3-yl)pyrazolo[1,5-a]pyrimidine-3-carboxamide]",++ (Compounds with a Cisplatin sensitization value >0.02 μM but <0.2 μM are marked with “++.”)
20,"Cc1nc(C(=O)N2CCN(C)CC2)ccc1-c1ccncc1NC(=O)c1c(N)nn2cc(F)cnc12 [I-C-39, 2-amino-6-fluoro-N-(2-methyl-6-(4-methylpiperazine-1-carbonyl)-[3,4′-bipyridin]-3′-yl)pyrazolo[1,5-a]pyrimidine-3-carboxamide]",+++ (Compounds with a Cisplatin sensitization value of <0.02 μM are marked with “+++.”)
21,"Cc1nc(N2CCN(C)CC2)ccc1-c1ccncc1NC(=O)c1c(N)nn2cc(F)cnc12 [I-C-40, 2-amino-6-fluoro-N-(2-methyl-6-(4-methylpiperazin-1-yl)-[3,4′-bipyridin]-3′-yl)pyrazolo[1,5-a]pyrimidine-3-carboxamide]",+++ (Compounds with a Cisplatin sensitization value of <0.02 μM are marked with “+++.”)
22,"Cc1nc(O[C@@H]2CCN(C)C2)ccc1-c1ccncc1NC(=O)c1c(N)nn2cc(F)cnc12 [I-C-41, (R)-2-amino-6-fluoro-N-(2-methyl-6-((1-methylpyrrolidin-3-yl)oxy)-[3,4′-bipyridin]-3′-yl)pyrazolo[1,5-a]pyrimidine-3-carboxamide]",+++ (Compounds with a Cisplatin sensitization value of <0.02 μM are marked with “+++.”)
23,"Nc1nn2cc(F)cnc2c1C(=O)Nc1cnccc1C1CC1 [I-C-42, 2-amino-N-(4-cyclopropylpyridin-3-yl)-6-fluoropyrazolo[1,5-a]pyrimidine-3-carboxamide]",++ (Compounds with a Cisplatin sensitization value >0.02 μM but <0.2 μM are marked with “++.”)
24,"CN1CCN(C(=O)c2ccc(-c3c(F)cncc3NC(=O)c3c(N)nn4cc(F)cnc34)cc2)CC1 [I-C-43, 2-amino-6-fluoro-N-(5-fluoro-4-(4-(4-methylpiperazine-1-carbonyl)phenyl)pyridin-3-yl)pyrazolo[1,5-a]pyrimidine-3-carboxamide]",+++ (Compounds with a Cisplatin sensitization value of <0.02 μM are marked with “+++.”)
25,"Nc1nn2cc(F)cnc2c1C(=O)Nc1cnccc1-c1ccc(C(=O)N2CCNCC2)cc1 [I-C-44, 2-amino-6-fluoro-N-(4-(4-(piperazine-1-carbonyl)phenyl)pyridin-3-yl)pyrazolo[1,5-a]pyrimidine-3-carboxamide]",+++ (Compounds with a Cisplatin sensitization value of <0.02 μM are marked with “+++.”)
26,"Cc1cc(C(=O)N2CCN(C)CC2)ccc1-c1ccncc1NC(=O)c1c(N)nn2cc(F)cnc12 [I-C-45, 2-amino-6-fluoro-N-(4-(2-methyl-4-(4-methylpiperazine-1-carbonyl)phenyl)pyridin-3-yl)pyrazolo[1,5-a]pyrimidine-3-carboxamide]",+++ (Compounds with a Cisplatin sensitization value of <0.02 μM are marked with “+++.”)
